Test results as given in PubChem BioAssay (NCI).
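These data come from cells grown in 96-well plates and exposed to compound for 48 hours at five concentrations. GI50 = concentration required for 50% inhibition of growth. Definition used: TGI = concentration required for complete inhibition of growth.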

Experiments:
Experiment in all cases: NCI-60 cell line screen, 48 h
[1] = tested on: MDA-MB-231 breast
[2] = tested on: U251 CNS
[3] = tested on: SK-MEL-2 melanoma
[4] = tested on: A549 NSCLC
[5] = tested on: UO-31 renal
[6] = tested on: SK-MEL-28 melanoma
[7] = tested on: ACHN renal
[8] = tested on: SR leukemia
[9] = tested on: KM12 colon
[10] = tested on: K-562 leukemia
[11] = tested on: HT29 colon
[12] = tested on: HCC-2998 colon
[13] = tested on: HCT-116 colon
[14] = tested on: MCF7 breast
[15] = tested on: NCI-H226 lung
[16] = tested on: SF-268 CNS
[17] = tested on: OVCAR-3 ovarian
[18] = tested on: SF-295 CNS
[19] = tested on: SN12C renal
[20] = tested on: SNB-19 CNS
[21] = tested on: SK-MEL-5 melanoma
[22] = tested on: IGROV1 ovarian
[23] = tested on: NCI/ADR-RES ovarian
[24] = tested on: SK-OV-3 ovarian
[25] = tested on: NCI-H460 lung
[26] = tested on: SW-620 colon
[27] = tested on: CAKI-1 renal
[28] = tested on: 786-0 renal
[29] = tested on: LOX IMVI melanoma
[30] = tested on: NCI-H23 lung
[31] = tested on: NCI-H522 lung
[32] = tested on: T-47D breast
[33] = tested on: BT-549 breast
[34] = tested on: A498 renal
[35] = tested on: SNB-75 CNS
[36] = tested on: HL-60(TB) leukemia
[37] = tested on: UACC-257 melanoma
[38] = tested on: COLO 205 colon
[39] = tested on: RPMI-8226 leukemia
[40] = tested on: PC-3 prostate
[41] = tested on: OVCAR-8 ovarian
[42] = tested on: HS 578T breast
[43] = tested on: RXF 393 renal
[44] = tested on: UACC-62 melanoma
[45] = tested on: M14 melanoma
[46] = tested on: OVCAR-4 ovarian
[47] = tested on: HCT-15 colon
[48] = tested on: HOP-62 NSCLC
[49] = tested on: OVCAR-5 ovarian
[50] = tested on: MALME-3M melanoma
[51] = tested on: HOP-92 NSCLC
[52] = tested on: DU-145 prostate
[53] = tested on: MOLT-4 leukemia
[54] = tested on: CCRF-CEM leukemia
[55] = tested on: TK-10 renal
[56] = tested on: SF-539 CNS
[57] = tested on: MDA-MB-435
[58] = tested on: EKVX NSCLC

## CC(C)N(Cc1c(F)cccc1F)c1ccc(CO)c(Cl)c1
[1]
  GI50: 15.3 µM
  TGI: 35.8 µM
[2]
  GI50: 228 nM
  TGI: 17.3 µM
[3]
  GI50: 848 nM
  TGI: 21.7 µM
[4]
  GI50: 643 nM
  TGI: 13.4 µM
[5]
  GI50: 3.14 µM
  TGI: 25 µM
[6]
  GI50: 13 µM
  TGI: 26.6 µM
[7]
  GI50: 15.3 µM
  TGI: 29.9 µM
[8]
  GI50: 19.4 µM
  TGI: 46.6 µM
[9]
  GI50: 15.8 µM
  TGI: 33.1 µM
[10]
  GI50: 354 nM
  TGI: 17.9 µM
[11]
  GI50: 2620 nM
  TGI: 17.5 µM
[12]
  GI50: 2060 nM
  TGI: 13.8 µM
[13]
  GI50: 40.8 nM
  TGI: 12.4 µM
[14]
  GI50: 65.5 nM
  TGI: 13.6 µM
[15]
  GI50: 72.7 nM
  TGI: 215 nM
[16]
  GI50: 18.3 µM
  TGI: 34.9 µM
[17]
  GI50: 171 nM
  TGI: 565 nM
[18]
  GI50: 157 nM
  TGI: 2530 nM
[19]
  GI50: 12.1 µM
  TGI: 25.7 µM
[20]
  GI50: 19.1 µM
  TGI: > 52.3 µM
[21]
  GI50: 12.7 µM
  TGI: 25.6 µM
[22]
  GI50: 42.4 nM
  TGI: 186 nM
[23]
  GI50: 10.9 µM
  TGI: 27.9 µM
[24]
  GI50: 2640 nM
  TGI: 12.9 µM
[25]
  GI50: 134 nM
  TGI: 2630 nM
[26]
  GI50: 355 nM
  TGI: 18.3 µM
[27]
  GI50: 1250 nM
  TGI: 15 µM
[28]
  GI50: 13.7 µM
  TGI: 29.6 µM
[29]
  GI50: 18.5 µM
  TGI: 34.7 µM
[30]
  GI50: 14 µM
  TGI: 32.4 µM
[31]
  GI50: 18 µM
  TGI: 35.2 µM
[32]
  GI50: 50.2 nM
  TGI: 216 nM
[33]
  GI50: 18.7 µM
  TGI: 34.3 µM
[34]
  GI50: 48.8 nM
  TGI: 148 nM
[35]
  GI50: 13 µM
  TGI: 26.6 µM
[36]
  GI50: 3.92 µM
  TGI: 34.5 µM
[37]
  GI50: 58.2 nM
  TGI: 195 nM
[38]
  GI50: 1020 nM
  TGI: 3.02 µM
[39]
  GI50: 529 nM
  TGI: 27.5 µM
[40]
  GI50: 12.1 µM
  TGI: 26.1 µM
[41]
  GI50: 6.65 µM
  TGI: 24.7 µM
[42]
  GI50: 17.7 µM
  TGI: 40.8 µM
[43]
  GI50: 1630 nM
  TGI: 20.6 µM
[44]
  GI50: 74.8 nM
  TGI: 398 nM
[45]
  GI50: 19.1 µM
  TGI: 37.7 µM
[46]
  GI50: 119 nM
  TGI: 832 nM
[47]
  GI50: 11.7 µM
  TGI: 29.1 µM
[48]
  GI50: 553 nM
  TGI: 19.6 µM
[49]
  GI50: 70.2 nM
  TGI: 253 nM
[50]
  GI50: 17.5 µM
  TGI: 33.6 µM
[51]
  GI50: 111 nM
  TGI: 1730 nM
[52]
  GI50: 12.2 µM
  TGI: 27.3 µM
[53]
  GI50: 19.5 µM
  TGI: 46 µM
[54]
  GI50: 17.8 µM
  TGI: 40.2 µM
[55]
  GI50: 32.6 nM
  TGI: 145 nM
[56]
  GI50: 16.8 µM
  TGI: 31.8 µM
[57]
  GI50: 17.3 µM
  TGI: 34.6 µM

## Cn1c(-c2cccc(N)c2)[n+](C)c2ccccc21
[1]
  TGI: > 100 µM
[58]
  TGI: > 100 µM
[3]
  TGI: > 100 µM
[4]
  TGI: > 100 µM
[5]
  TGI: > 100 µM
[6]
  TGI: > 100 µM
[7]
  TGI: > 100 µM
[8]
  TGI: > 100 µM
[9]
  TGI: > 100 µM
[10]
  TGI: > 100 µM
[11]
  TGI: > 100 µM
[12]
  TGI: > 100 µM
[13]
  TGI: > 100 µM
[14]
  TGI: > 100 µM
[15]
  TGI: > 100000 nM
[16]
  TGI: > 100 µM
[17]
  TGI: > 100000 nM
[18]
  TGI: > 100000 nM
[20]
  TGI: > 100 µM
[21]
  TGI: > 100 µM
[22]
  TGI: > 100000 nM
[23]
  TGI: > 100 µM
[24]
  TGI: > 100 µM
[25]
  TGI: > 100000 nM
[26]
  TGI: > 100 µM
[27]
  TGI: > 100 µM
[28]
  TGI: > 100 µM
[29]
  TGI: > 100 µM
[30]
  TGI: > 100 µM
[32]
  TGI: > 100000 nM
[33]
  TGI: > 100 µM
[34]
  TGI: > 100000 nM
[35]
  TGI: > 100 µM
[36]
  TGI: > 100 µM
[37]
  TGI: > 100000 nM
[38]
  TGI: > 100 µM
[39]
  TGI: > 100 µM
[40]
  TGI: > 100 µM
[41]
  TGI: > 100 µM
[42]
  TGI: > 100 µM
[43]
  TGI: > 100 µM
[44]
  TGI: > 100000 nM
[45]
  TGI: > 100 µM
[46]
  TGI: > 100000 nM
[47]
  TGI: > 100 µM
[48]
  TGI: > 100 µM
[49]
  TGI: > 100000 nM
[50]
  TGI: > 100 µM
[51]
  TGI: > 100000 nM
[52]
  TGI: > 100 µM
[53]
  TGI: > 100 µM
[54]
  TGI: > 100 µM
[55]
  TGI: > 100000 nM
[56]
  TGI: > 100 µM
[57]
  TGI: > 100 µM
